Laboratory results taken from ChEMBL document CHEMBL1201862, “PubChem BioAssay data set” (2004).
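Tested at 5 concentrations; 48 h exposure; 96-well plates; endpoints linearly interpolated, else capped at highest concentration. Here, GI50 denotes the concentration required for 50% inhibition of growth.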 Calls of active or inactive are those of the source. Rule as the data show it: active = GI50 up to about 1.1 µM and inactive = higher.

Legend:
Assay in all cases: NCI tumour cell line growth inhibition, 48 h
LOX IMVI = system: LOX IMVI
NCI-H23 = system: NCI-H23
COLO 205 = system: COLO 205
NCI-H460 = system: NCI-H460
OVCAR-4 = system: OVCAR-4
UACC-62 = system: UACC-62
A549 = system: A549
Malme-3M = system: Malme-3M
SF-295 = system: SF-295
HOP-18 = system: HOP-18
RPMI-8226 = system: RPMI-8226
SR = system: SR
IGROV-1 = system: IGROV-1
HCT-15 = system: HCT-15
OVCAR-5 = system: OVCAR-5
SF-268 = system: SF-268
CAKI-1 = system: CAKI-1
HCC 2998 = system: HCC 2998
A498 = system: A498
PC-3 = system: PC-3

SMILES | GI50 (LOX IMVI) | GI50 (NCI-H23) | GI50 (COLO 205) | GI50 (NCI-H460) | GI50 (OVCAR-4) | GI50 (UACC-62) | GI50 (A549) | GI50 (Malme-3M) | GI50 (SF-295) | GI50 (HOP-18) | GI50 (RPMI-8226) | GI50 (SR) | GI50 (IGROV-1) | GI50 (HCT-15) [µM] | GI50 (OVCAR-5) | GI50 (SF-268) | GI50 (CAKI-1) | GI50 (HCC 2998) | GI50 (A498) | GI50 (PC-3)
COc1ccc(C(C#N)NNC(=O)Cc2ccccc2)cc1OC (stereo not given) | > 100 µM (inactive) | > 100 µM (inactive) | > 100 µM (inactive) | > 100 µM (inactive) | > 100 µM (inactive) | > 100 µM (inactive) | > 100 µM (inactive) | > 100 µM (inactive) | > 100 µM (inactive) | > 100 µM (inactive) | > 100 µM (inactive) | > 100 µM (inactive) | > 100 µM (inactive) | > 100 | > 100 µM (inactive) | > 100 µM (inactive) | > 100 µM (inactive) |  |  | 
Cc1ccccc1NC(=O)Cc1nc2ccccc2s1 | 16.7 µM (inactive) | 14.7 µM (inactive) | 30.7 µM (inactive) | 19.4 µM (inactive) | 17.3 µM (inactive) | 19.4 µM (inactive) | 16.6 µM (inactive) | 15.8 µM (inactive) | 15.8 µM (inactive) | 1.72 µM (inactive) |  | 13.1 µM (inactive) | > 10 µM (inactive) |  | 21.9 µM (inactive) | 17 µM (inactive) | 17.7 µM (inactive) | 34 µM (inactive) | 19.2 µM (inactive) | 
O=C(O)CNCc1c2ccccc2nc2ccccc12 | 28.3 µM (inactive) | 35.6 µM (inactive) | 41 µM (inactive) | 39.2 µM (inactive) | 31.7 µM (inactive) | 44.7 µM (inactive) | 43.4 µM (inactive) | > 74.5 µM (inactive) | 48.4 µM (inactive) | > 100 µM (inactive) | 8.43 µM (inactive) | 7.33 µM (inactive) | 45.9 µM (inactive) | 34.4 | > 85.9 µM (inactive) | 32.7 µM (inactive) | 35.7 µM (inactive) | 58.6 µM (inactive) | 66.1 µM (inactive) | 27.2 µM (inactive)
C[C@]12CCC[C@H](OC=O)C1(O)C[C@H](C(=O)O)CC2 (stereo not given in full) | > 100 µM (inactive) | > 100 µM (inactive) | > 100 µM (inactive) | > 100 µM (inactive) | > 100 µM (inactive) | 16.5 µM (inactive) | > 100 µM (inactive) | > 100 µM (inactive) | > 100 µM (inactive) | > 100 µM (inactive) | > 100 µM (inactive) | > 100 µM (inactive) | > 100 µM (inactive) | > 100 | > 100 µM (inactive) | > 100 µM (inactive) | > 100 µM (inactive) | > 100 µM (inactive) | > 100 µM (inactive) | 
CCOC(=O)C(=O)Nc1c(C)cccc1C(C)C |  | > 100 µM (inactive) | > 100 µM (inactive) | > 100 µM (inactive) | > 100 µM (inactive) | > 100 µM (inactive) | > 100 µM (inactive) | > 100 µM (inactive) | > 100 µM (inactive) | > 100 µM (inactive) | > 100 µM (inactive) | > 100 µM (inactive) | > 100 µM (inactive) | > 100 | > 100 µM (inactive) | > 100 µM (inactive) | > 100 µM (inactive) |  | > 100 µM (inactive) | 
CSc1nc(-c2ccccc2)nc(N2CCOCC2)[s+]1 | 43 µM (inactive) | > 100 µM (inactive) | 37 µM (inactive) | 39 µM (inactive) | > 100 µM (inactive) | 28.6 µM (inactive) | > 100 µM (inactive) | > 100 µM (inactive) |  | > 100 µM (inactive) |  | 16.6 µM (inactive) | > 100 µM (inactive) | 37.8 | > 100 µM (inactive) | > 100 µM (inactive) |  | > 100 µM (inactive) | > 100 µM (inactive) | 
CC(C)N1C(C)[C@@H](c2ccccc2)O[P@]1(=O)CC1=CCCCC1 (stereo not given in full) | 74.1 µM (inactive) | 82.8 µM (inactive) | 98.4 µM (inactive) | 87.1 µM (inactive) |  | 51.5 µM (inactive) | > 100 µM (inactive) | > 100 µM (inactive) | 40.9 µM (inactive) | > 100 µM (inactive) | 62.8 µM (inactive) | 44.5 µM (inactive) | > 100 µM (inactive) | > 100 | 88.5 µM (inactive) | > 100 µM (inactive) |  | 99.3 µM (inactive) | > 100 µM (inactive) | 
Cc1ccc(S(=O)(=O)SCc2ccccc2)cc1 | 18.9 µM (inactive) | 19 µM (inactive) | 14.3 µM (inactive) | 28.5 µM (inactive) | 15.5 µM (inactive) | 29.4 µM (inactive) | 35.8 µM (inactive) | 24.4 µM (inactive) | 30.3 µM (inactive) | > 80.4 µM (inactive) | 10.1 µM (inactive) | 28 µM (inactive) | 39.1 µM (inactive) | 14.1 | 33.2 µM (inactive) | 34 µM (inactive) | 34.9 µM (inactive) | 24.2 µM (inactive) | 52.8 µM (inactive) | 
COC(=O)/C(=N\NC(N)=O)C(C(=O)C=C(C)C)C(=O)C(=O)Nc1ccc(Cl)c(Cl)c1 (stereo not given) | > 100 µM (inactive) | > 100 µM (inactive) | > 100 µM (inactive) | > 100 µM (inactive) | > 100 µM (inactive) | > 100 µM (inactive) | > 100 µM (inactive) | > 100 µM (inactive) | > 100 µM (inactive) | > 100 µM (inactive) |  | > 100 µM (inactive) | > 100 µM (inactive) | > 100 | > 100 µM (inactive) | > 100 µM (inactive) | > 100 µM (inactive) | > 100 µM (inactive) | > 100 µM (inactive) | 
